Experimental data as given in patent publication US20150125515A1, “NOVEL SP-B & SP-C PEPTIDES, SYNTHETIC LUNG SURFACTANTS, AND USE THEREOF” (UNIVERSITY OF ROCHESTER, priority 2012, published 2015).
Blank lines part the entries; values can stand above or below the compound they belong to.

Tests used:
[1] = Adsorption of surfactant compositions to the air-water interface (surface pressure vs time, Wilhelmy method); assay type: physicochemical; conditions: Means ± SEM
Description: (§1) Surface activity of synthetic peptide/lipid surfactant compositions was assessed by either or both of the following methods: (1) measurement of the adsorption of surfactant compositions to the air-water interface as a function of time, and (2) measurement of overall dynamic surface activity on a pulsating bubble surfactometer (general methodological details of these two experimental techniques are described by Notter, Lung Surfactants: Basic Science and Clinical Applications, Marcel Dekker, Inc, New York (2000), which is hereby incorporated by reference in its entirety).
In adsorption studies, a given surfactant mixture was injected at time zero beneath the surface of a stirred surfactant-free subphase, and surface pressure (defined as surface tension lowering below that of the pure subphase) was measured as a function of time from the force on a hanging platinum slide (“Wilhelmy” method). By definition, higher surface pressure corresponds to lower surface tension (Notter, Lung Surfactants: Basic Science and Clinical Applications, Marcel Dekker, Inc, New York (2000)).

[2] = Pulsating bubble surfactometer, minimum surface tension; assay type: physicochemical; conditions: Table 8, 37° C, 20 cycles/min, 50% area compression, 2.5 mg/ml phospholipid, Means ± SEM, N = 4
Description: as §1
In pulsating bubble studies, surface tension at minimum bubble radius (minimum surface tension) was determined as a function of time during pulsation on a bubble surfactometer (General Transco, Largo, Fla.) (37° C., 20 cycles/min, 50% area compression). A tiny air bubble was formed and pulsated between maximum and minimum radii of 0.55 and 0.4 mm, respectively, and the pressure drop across the air-water interface of the bubble was measured with a precision transducer. Minimum surface tension was calculated from the measured pressure drop at minimum radius (0.4 mm) from the Laplace equation (Enhorning, “Pulsating Bubble Technique for Evaluation of Pulmonary Surfactant,” J Appl Physiol 43:198-203 (1977); Hall et al., “Approximations in the Measurement of Surface Tension with the Oscillating Bubble Surfactometer,” J Appl Physiol 75:468-477 (1993), each of which is hereby incorporated by reference in its entirety). Measurements of overall surface activity on this instrument reflect the combined effects of adsorption and dynamic film compression at a cycling rate (20 cycles/min), temperature (37° C.), and area compression (50% compression from maximum to minimum area) relevant for the mammalian lungs in vivo (Notter, Lung Surfactants: Basic Science and Clinical Applications, Marcel Dekker, Inc, New York (2000); Enhorning, “Pulsating Bubble Technique for Evaluation of Pulmonary Surfactant,” J Appl Physiol 43:198-203 (1977); Notter et al., “Pulmonary Surfactant: Physical Chemistry, Physiology and Replacement,” Rev Chem Eng 13:1-118 (1997), each of which is hereby incorporated by reference in its entirety).

[3] = system: ventilated rabbits with ARDS induced by saline lavage; assay: Saline-lavage ventilated rabbit model of ARDS: arterial oxygenation and dynamic compliance; assay type: in vivo, New Zealand white rabbits; conditions: intratracheal 100 mg/kg
Description: Saline lavage produces surfactant deficiency, alveolar collapse and lung edema in ventilated rats and rabbits, and is a useful experimental model for human ARDS. A saline-lavage rabbit model for lung injury was thus used to compare synthetic surfactants, with lipids only as negative control. Restoration of lung function was assessed by serial monitoring of gas exchange and lung mechanics. Physiological activity results for selected synthetic SP-B peptides are shown below, and physiological activity results for selected synthetic SP-C peptides are included in following Example 8.
Animal experiments were performed following established protocols approved by the Animal Care and Use Committee at the Los Angeles Biomedical Research Institute at Harbor-UCLA Medical Center. […] In brief, experimental animals were commercially available young adult male New Zealand white rabbits whose respiratory function was followed during mechanical ventilation by measurements of serial arterial blood gases and pulmonary compliance over the first 2 hours after a standardized saline lavage protocol. For this timeframe of study, the model reflected a relatively pure state of surfactant insufficiency in animals with mature lungs. Saline lavage administration was performed after induction of anesthesia, insertion of a venous line in a marginal ear vein, endotracheal intubation and initiation of mechanical ventilation, muscle paralysis, and insertion of a carotid arterial line. Heart rate, arterial blood pressure and rectal temperature were measured continuously. After stabilization on the ventilator, saline lavage was performed with repeated intratracheal instillation and removal of 30 mL of normal saline until the PaO2 dropped below 100 mm Hg (average 3 lavages). Maintenance fluid was provided by a continuous infusion of Lactated Ringer's solution at a rate of 10 ml/kg/h. Edema fluid appearing in the trachea was removed by suctioning. When the PaO2 was stable at less than 100 mm Hg in saline lavaged animals, an experimental or control surfactant mixture was instilled into the trachea at a dose of 100 mg/kg body weight and a concentration of 35 mg/mL. The rabbits were ventilated using a Harvard volume-controlled animal ventilator (tidal volume 7.5 ml/kg, a positive end-expiratory pressure [PEEP] of 3 cm H2O, an inspiratory/expiratory ratio of 1:2, 100% oxygen, and a respiratory rate to maintain a PaCO2 at ˜40 mm Hg). Airway flow and pressures and tidal volume were monitored continuously with a pneumotachograph connected to the endotracheal tube and a pneumotach system. Arterial pH and blood gases were done every 15 minutes. Dynamic lung compliance was calculated by dividing tidal volume/kg body weight by changes in airway pressure (peak inspiratory pressure minus positive end-expiratory pressure) (mL/kg/cmH2O). Animals were sacrificed 2 h after surfactant administration with an overdose of pentobarbital. End-points are pulmonary gas exchange (arterial pH, PaCO2 and PaO2) and pulmonary mechanics (dynamic compliance, postmortem pressure-volume curves). Each treatment group consisted of n=4-9 animals.
The in vivo pulmonary activity of reduced MB DATK and SMB DATK was investigated in comparison with oxidized SMB and MB (positive controls) and lipids alone (negative control) over 120 min, following intratracheal instillation of these surfactants into ventilated rabbits with ARDS induced by saline lavage. Oxidized SMB and MB were used as positive controls, because these SP-B mimics previously indicated high in vivo surfactant activities equal to those of native, full-length porcine SP-B in ventilated rats with ARDS (Walther et al., “Critical Structural and Functional Roles for the N-terminal Insertion Sequence in Surfactant Protein B Analogs,” PLoS One 5:e8672 (2010), which is hereby incorporated by reference in its entirety). […]

[4] = synthetic peptide; Walther et al. 2000; cited from earlier work
[5] = storage in organic solvent or in surfactant lipids for 4-6 weeks; Walther et al. 2007; cited from earlier work
[6] = Table 7, 0.0625 mg phospholipid/ml of subphase, normal saline pH 7.0, 37 ± 0.5° C, N = 4
[7] = Table 9, phospholipase-resistant lipids, 0.0625 mg phospholipid/ml, n = 4
[8] = Table 13, SP-B plus SP-C peptide (1.5%:1.5%) with resistant lipids or glycerophospholipids, 0.0625 mg phospholipid/ml, n = 4

Adsorption Surface Pressure at time 0 min [1, 6]: 0 ± 0.0 mN/m
Adsorption Surface Pressure at time 1 min [1, 6]: 12.9 ± 2.9 mN/m
Adsorption Surface Pressure at time 2 min [1, 6]: 16.0 ± 1.6 mN/m
Adsorption Surface Pressure at time 5 min [1, 6]: 17.8 ± 1.7 mN/m
Adsorption Surface Pressure at time 10 min [1, 6]: 18.0 ± 1.7 mN/m
Adsorption Surface Pressure at time 15 min [1, 6]: 18.2 ± 1.7 mN/m
Adsorption Surface Pressure at time 0 min [1, 7]: 0.0 ± 0.0 mN/m
Adsorption Surface Pressure at time 1 min [1, 7]: 12.9 ± 2.9 mN/m
Adsorption Surface Pressure at time 2 min [1, 7]: 16.0 ± 1.6 mN/m
Adsorption Surface Pressure at time 5 min [1, 7]: 17.8 ± 1.7 mN/m
Adsorption Surface Pressure at time 10 min [1, 7]: 18.0 ± 1.7 mN/m
Adsorption Surface Pressure at time 15 min [1, 7]: 18.2 ± 1.7 mN/m
Adsorption Surface Pressure at time 0 min [1, 8]: 0.0 ± 0.0 mN/m
Adsorption Surface Pressure at time 1 min [1, 8]: 12.9 ± 2.9 mN/m
Adsorption Surface Pressure at time 2 min [1, 8]: 16.0 ± 1.6 mN/m
Adsorption Surface Pressure at time 5 min [1, 8]: 17.8 ± 1.7 mN/m
Adsorption Surface Pressure at time 10 min [1, 8]: 18.0 ± 1.7 mN/m
Adsorption Surface Pressure at time 15 min [1, 8]: 18.2 ± 1.7 mN/m
Minimum Surface Tension at 0.25 min of bubble pulsation ([2]; 0.25 min): 31.2 ± 2.0 mN/m
Minimum Surface Tension at 0.5 min of bubble pulsation ([2]; 0.5 min): 27.1 ± 1.8 mN/m
Minimum Surface Tension at 1 min of bubble pulsation ([2]; 1 min): 21.2 ± 1.5 mN/m
Minimum Surface Tension at 2 min of bubble pulsation ([2]; 2 min): 14.6 ± 1.2 mN/m
Minimum Surface Tension at 5 min of bubble pulsation ([2]; 5 min): 7.8 ± 1.7 mN/m
Minimum Surface Tension at 10 min of bubble pulsation ([2]; 10 min): 1.5 ± 1.0 mN/m
Minimum Surface Tension at 15 min of bubble pulsation ([2]; 15 min): <1 mN/m
Compound: CCCCCCCCCCCCCCCCOCC(COP(=O)(O)CCC[N+](C)(C)C)OCCCCCCCCCCCCCCCC (racemic) [DEPN-8, [(±)-trimethyl(3-phosphonopropyl)ammonium, mono(2,3-bis(hexadecyloxy)propyl ester]]

Compound: GIPFFPVHLKRLLIVVVVVVLIVVVIVGALLMGL [SP-Cff]
Oxygenation and lung compliance after instillation (FIG. 2) ([3]; SP-C mimics 3.0% by weight in 5:3:2 (weight ratio) DPPC:POPC:POPG, PBS pH 7.4, 35 mg/mL): much less so
relative order of pulmonary activity in terms of oxygenation and lung compliance ([3]; SP-C mimics 3.0% by weight in 5:3:2 DPPC:POPC:POPG): SP-C33˜SP-Css ion-lock>SP-Cff>Lipids alone
solubility in chloroform-methanol [4]: low solubility
conformational stability upon storage (FTIR) [5]: self-associates to form β-sheet aggregates
